According to patent publication US4988688A, “4-(N-substituted amino)-2-butynyl-1-ureas and thioureas and derivatives thereof as centrally acting muscarinic agents” (Warner-Lambert Company, priority 1989, dated 1991):
Structures can show the parent of a compound that is named as a salt. Where two headings read alike, the source gives them in different places.

Assays:
[1] = test system: age-related cognitive deficits; conditions: increasing acetylcholine release from presynaptic nerve terminals; cited from earlier work
[2] = target: central muscarinic agonist site; experiment: Receptor [^3H]Cis-methyldioxalane Assay (RCMD); assay type: binding; conditions: rat cerebral cortex tissue; radiolabeled cis-methyldioxalane; head prints (0.1 μm)
[3] = test system: human SK-N-SH cells bearing muscarinic binding sites
Method: In the Muscarinic Induced Inositol Phosphate Accumulation Assay (MIPA) human SK-N-SH cells bearing muscarinic binding sites are incubated with the test compound. The production of inositol phosphates is then measured. Stimulation of inositol phosphate turnover reflects the degree of muscarinic agonist activity of the test compound. The concentration of test compound required to produce a response 50% of the maximum is then determined.

[4] = test system: central muscarinic antagonist site; assay type: binding, rat; conditions: read-out: RQNB (1 μM) IC50
[5] = test system: aged humans and nonhuman primates; conditions: aged humans and nonhuman primates with decreased cognition; acetylcholinesterase inhibitors such as physostigmine; cited from earlier work
mice = conditions: cited from earlier work

For `Nc1ccncc1N` [3,4-diaminopyridine], the “effect on age-related cognitive deficits” value [1] is listed as “ameliorate age-related cognitive deficits”.

In the case of `CNC(=O)N(C)CC#CCN1CCCC1` [Example 1a, N,N'-Dimethyl-N-4-(1-pyrrolidinyl)-2-butynyl]-urea, hydrochloride], the IC50 [2] is reported as 0.0434 µM, the “MIPA (ED50)” value [3] is reported as 2.91 × 10^-5 and the IC50 [4] is reported as 8.79 µM.

With `CNC(=O)N(C)CC#CCN(C)C.Cl` [Example 2, N-[4-(Dimethylamino)-2-butynyl]-N,N'-dimethyl-urea, monohydrochloride] the IC50 [2] was 0.275 µM, the “MIPA (ED50)” value [3] was 1.84 × 10^-5 and the IC50 ([4]; rat cerebral cortex tissue, radiolabeled quinuclidinyl benzilate, head prints (1 μM)) was 100 µM.

In the case of `CNC(=O)Oc1ccc2c(c1)[C@]1(C)CCN(C)[C@@H]1N2C` [physostigmine], the memory improvement [5] is listed as “improved memory”.

In the case of `C(#CCN1CCCC1)CN1CCCC1` [tremorine, 1,4-dipyrrolidino-2-butyne], the “tremor of the head and limbs and its duration” value (mice) is given as “profound tremor of the head and limbs lasting for more than one hour”.
